According to patent US6946458B2, “N-thiolated beta-lactams: novel antibacterial agents for methicillin-resistant Staphylococcus aureus” (University of South Florida, priority 1999, dated 2005):

Assays:
Assay type in all cases: cell-based, Staphylococcus aureus
[1] = system: Staphylococcus strains including MRSA; assay: antibacterial activity screening, results stated in words
Description: However, the N-alkylthio substituent is required, since reduction to the N—H analogue completely destroys the biological activity. […]
(§1) Of particular interest is the ability of these compounds to retain their effectiveness against penicillin-resistant strains of Staphylococcus aureus, a dangerous hospital-borne pathogen which is becoming difficult to treat with conventional antibiotic therapy. The lactams were screened for antibacterial activity by disk diffusion on agar plates, and the resulting zones of bacterial growth inhibition measured (see Table 3; each lactam is designated by Figure number).
With the lactam of FIG. 6A serving as a lead structure, other C4-unsaturated derivatives (FIGS. 6B-6E) and C4-saturated analogues (FIGS. 6F-6H), were examined all of which also have activity against Staphylococcus strains including MRSA.
(§2) Scheme I summarizes the synthesis of ester compounds 4. 4-Carboxy benzaldehyde (1) is coupled with the appropriate alcohol using DCC/DMAP, followed by reaction with p-anisidine, to give imines 2. Staudinger coupling of methoxyacetyl chloride with imine 2 gives N-aryl protected β-lactam 3. N-Dearylation of β-lactam 3 with ceric ammonium nitrate and methylthiolation with N-(methylthio)phthalimide affords N-methylthio β-lactams 4. These compounds are tested for antibacterial activity by the Kirby-Bauer method of disc diffusion on agar plates. [drawing 7]

[2] = system: MRSA USF652; assay: Kirby-Bauer agar disk diffusion; design: Kirby-Bauer Disc Diffusion Test Results: unit not given here; settings: for The Zone of Inhibition: Table 6; for The Zone of Inhibition / Zones of Inhibition: 20 μg disk loading; for Zones of Inhibition: Table 4; for Kirby-Bauer Disc Diffusion Test Results: Table 5, beta-lactamase producing strain
Procedure: (§3) In this study, a selection of N-methylthio-substituted β-lactams are examined for antimicrobial activity by the Kirby-Bauer disk diffusion method on agar plates. A variety of common Gram-positive and Gram-negative bacteria are tested, including clinical isolates of methicillin-resistant Staphylococcus aureus (MRSA).
(§4) Compound susceptibility measurements are obtained from agar disk diffusion experiments using 6-mm air-dried disks impregnated with 20 μg of the test compound. The values correspond to the average diameters in mm (triplicate experiments) for the zone of growth inhibition observed after 24 h. Staphylococcus aureus (ATCC 25923) and β-lactamase-producing strains of methicillin-resistant Staphylococcus aureus (labeled as MRSA USF652-659) are obtained from Lakeland Regional Medical Center, Lakeland, Fla. Staphylococcus epidermidis, Staphylococcus simulans, Staphylococcus simulans, and Microcossus luteus are clinical isolates from University of South Florida Medical Clinic. Nieserria gonnorhoeae (β-lactamase positive) is obtained from the Tampa Branch State Laboratory. PenG is penicillin G (potassium salt). Table 1 provides the zones of growth inhibition that are observed after 24 hours using the lactams of FIGS. 1A-1I (designated A-I, respectively).
as §1
(§5) Table 3: Growth inhibition zones obtained from agar disk diffusion experiments using 6-mm air-dried disks impregnated with 20 μg of the test compound. The values correspond to the average diameters in mm for the zone of growth inhibition observed after 24 hours. Staphylococcus aureus and β-lactamase-producing strains of methicillin-resistant Staphylococcus aureus (labeled MRSA USF652-659) are obtained from a clinical testing laboratory at Lakeland Regional Medical Center, Lakeland, Fla.
(§6) Those compounds were tested for bioactivity using the Kirby-Bauer test on agar plates.
(§7) Biological activity is enhanced against β-lactamase producing strains of methicillin-resistant Staphylococcus aureus (MRSA). With the lactam shown in FIG. 11A serving as a lead structure, a series of other C-4 substituted derivatives (FIGS. 11B-11I) were investigated herein. Table 5 lists microbiological data for β-lactams from Kirby-Bauer Disc Diffusion Test Results (with each lactam identified by Figure number).
as §2

[3] = system: MRSA USF653; assay: Kirby-Bauer agar disk diffusion; design: Kirby-Bauer Disc Diffusion Test Results: unit not given here; settings: for The Zone of Inhibition: Table 6; for The Zone of Inhibition / Zones of Inhibition: 20 μg disk loading; for Zones of Inhibition: Table 4; for Kirby-Bauer Disc Diffusion Test Results: Table 5, beta-lactamase producing strain
Procedure: as §3, §4, §1, §5, §6, §7, §2

[4] = system: MRSA USF654; assay: Kirby-Bauer agar disk diffusion; design: Kirby-Bauer Disc Diffusion Test Results: unit not given here; settings: for The Zone of Inhibition: Table 6; for The Zone of Inhibition / Zones of Inhibition: 20 μg disk loading; for Zones of Inhibition: Table 4; for Kirby-Bauer Disc Diffusion Test Results: Table 5, beta-lactamase producing strain
Procedure: as §3, §4, §1, §5, §6, §7, §2

[5] = system: MRSA USF655; assay: Kirby-Bauer agar disk diffusion; design: Kirby-Bauer Disc Diffusion Test Results: unit not given here; settings: for The Zone of Inhibition: Table 6; for The Zone of Inhibition / Zones of Inhibition: 20 μg disk loading; for Zones of Inhibition: Table 4; for Kirby-Bauer Disc Diffusion Test Results: Table 5
Procedure: as §3, §4, §1, §5, §6, §7, §2

[6] = system: MRSA USF656; assay: Kirby-Bauer agar disk diffusion; design: Kirby-Bauer Disc Diffusion Test Results: unit not given here; settings: for The Zone of Inhibition: Table 6; for The Zone of Inhibition / Zones of Inhibition: 20 μg disk loading; for Zones of Inhibition: Table 4; for Kirby-Bauer Disc Diffusion Test Results: Table 5, beta-lactamase producing strain
Procedure: as §3, §4, §1, §5, §6, §7, §2

[7] = system: MRSA USF657; assay: Kirby-Bauer agar disk diffusion; design: Kirby-Bauer Disc Diffusion Test Results: unit not given here; settings: for The Zone of Inhibition: Table 6; for The Zone of Inhibition / Zones of Inhibition: 20 μg disk loading; for Zones of Inhibition: Table 4; for Kirby-Bauer Disc Diffusion Test Results: Table 5, beta-lactamase producing strain
Procedure: as §3, §4, §1, §5, §6, §7, §2

[8] = system: MRSA USF658; assay: Kirby-Bauer agar disk diffusion; design: Kirby-Bauer Disc Diffusion Test Results: unit not given here; settings: for The Zone of Inhibition: Table 6; for The Zone of Inhibition / Zones of Inhibition: 20 μg disk loading; for Zones of Inhibition: Table 4; for Kirby-Bauer Disc Diffusion Test Results: Table 5, beta-lactamase producing strain
Procedure: as §3, §4, §1, §5, §6, §7, §2

[9] = system: MRSA USF659; assay: Kirby-Bauer agar disk diffusion; design: Kirby-Bauer Disc Diffusion Test Results: unit not given here; settings: for The Zone of Inhibition: Table 6; for The Zone of Inhibition / Zones of Inhibition: 20 μg disk loading; for Zones of Inhibition: Table 4; for Kirby-Bauer Disc Diffusion Test Results: Table 5, beta-lactamase producing strain
Procedure: as §3, §4, §1, §5, §6, §7, §2

[10] = system: Staph aureus 525; assay: Kirby-Bauer agar disk diffusion; settings: for Zones of Inhibition: Table 4, 20 μg disk loading; for Kirby-Bauer Disc Diffusion Test Results: Table 5
[11] = Example 6, MRSA strains of Table 6

CCCCCCCOC(=O)c1ccc(C2C(OC)C(=O)N2SC)cc1 (racemic) [FIG. 8D]
antibacterial activity, in words ([1]; Example 3 SAR): about half the activity of the pentyl analogues

COC1C(=O)N(SC)C1c1ccccc1Cl (racemic) [FIG. 7A]
antibacterial activity, in words ([1]; Example 3 SAR): most active analogue

CCCCCCCCCCOC(=O)c1ccc(C2C(OC)C(=O)N2SC)cc1 (racemic) [4e]
The Zone of Inhibition [2]: 0 mm | The Zone of Inhibition [3]: 0 mm | The Zone of Inhibition [4]: 0 mm | The Zone of Inhibition [5]: 0 mm | The Zone of Inhibition [6]: 0 mm | The Zone of Inhibition [7]: 0 mm | The Zone of Inhibition [8]: 0 mm | The Zone of Inhibition [9]: 0 mm | antibacterial activity, in words [1, 11]: no activity

CCOC(=O)c1ccc(C2C(OC)C(=O)N2SC)cc1 (racemic) [4b]
The Zone of Inhibition [2]: 17 mm | The Zone of Inhibition [3]: 14 mm | The Zone of Inhibition [4]: 9 mm | The Zone of Inhibition [5]: 12 mm | The Zone of Inhibition [6]: 11 mm | The Zone of Inhibition [7]: 14 mm | The Zone of Inhibition [8]: 11 mm | The Zone of Inhibition [9]: 13 mm | antibacterial activity, in words [1, 11]: about similar activity

COC1C(=O)N(SC)C1C(C#Cc1ccccc1)OC(C)=O (mixture of isomers) [FIG. 6I]
antibacterial activity, in words ([1]; Example 3 SAR): devoid of activity

COC1C(=O)N(SC)C1C#Cc1ccccc1 (racemic) [FIG. 6A]
antibacterial activity, in words ([1]; Example 3 SAR): inhibits the in vitro growth

CCCCCOC(=O)c1ccc(C2C(OC)C(=O)N2SC)cc1 (racemic) [4c]
The Zone of Inhibition [2]: 17 mm | The Zone of Inhibition [3]: 13 mm | The Zone of Inhibition [4]: 11 mm | The Zone of Inhibition [5]: 13 mm | The Zone of Inhibition [6]: 14 mm | The Zone of Inhibition [7]: 14 mm | The Zone of Inhibition [8]: 12 mm | The Zone of Inhibition [9]: 12 mm | antibacterial activity, in words [1, 11]: about similar activity

COC(=O)c1ccc(C2C(OC)C(=O)N2SC)cc1 (racemic) [FIG. 7J]
antibacterial activity, in words ([1]; Example 3 SAR): showing antibacterial activity

COC1C(=O)N(SC)C1c1ccccc1 (racemic) [FIG. 6J]
antibacterial activity, in words ([1]; Example 3 SAR): highly active

COC(=O)c1ccc(C2C(OC)C(=O)N2SC)cc1 (racemic) [4a]
The Zone of Inhibition [2]: 12 mm | The Zone of Inhibition [3]: 14 mm | The Zone of Inhibition [4]: 8 mm | The Zone of Inhibition [5]: 14 mm | The Zone of Inhibition [6]: 11 mm | The Zone of Inhibition [7]: 12 mm | The Zone of Inhibition [8]: 9 mm | The Zone of Inhibition [9]: 13 mm | antibacterial activity, in words [1, 11]: about similar activity

CCSN1C(=O)C(OC)C1c1ccccc1Cl (racemic) [Ethylthio]
Zones of Inhibition [2]: 33 mm | Zones of Inhibition [3]: 33 mm | Zones of Inhibition [4]: 27 mm | Zones of Inhibition [5]: 28 mm | Zones of Inhibition [6]: 29 mm | Zones of Inhibition [7]: 29 mm | Zones of Inhibition [8]: 30 mm | Zones of Inhibition [9]: 30 mm | Zones of Inhibition [10]: 26 mm

CCCCCOC(=O)c1ccc(C2C(OC)C(=O)N2SC)cc1 (racemic) [FIG. 8C]
antibacterial activity, in words ([1]; Example 3 SAR): activity is maintained

COC1C(=O)N(SC2CCCCC2)C1c1ccccc1Cl (racemic) [Cyclo-hexyl]
Zones of Inhibition [2]: 25 mm | Zones of Inhibition [3]: 20 mm | Zones of Inhibition [4]: 21 mm | Zones of Inhibition [5]: 22 mm | Zones of Inhibition [6]: 23 mm | Zones of Inhibition [7]: 23 mm | Zones of Inhibition [8]: 26 mm | Zones of Inhibition [9]: 22 mm | Zones of Inhibition [10]: 21 mm

COC1C(=O)N(SC)C1c1cccc(Cl)c1 (racemic) [FIG. 11G]
Kirby-Bauer Disc Diffusion Test Results [2]: 26 | Kirby-Bauer Disc Diffusion Test Results [3]: 28 | Kirby-Bauer Disc Diffusion Test Results [4]: 21 | Kirby-Bauer Disc Diffusion Test Results [5]: 23 | Kirby-Bauer Disc Diffusion Test Results [6]: 26 | Kirby-Bauer Disc Diffusion Test Results [7]: 25 | Kirby-Bauer Disc Diffusion Test Results [8]: 22 | Kirby-Bauer Disc Diffusion Test Results [9]: 15 | Kirby-Bauer Disc Diffusion Test Results [10]: 24

COC1C(=O)N(SC)C1c1c(Cl)cccc1Cl (racemic) [FIG. 11I]
Kirby-Bauer Disc Diffusion Test Results [2]: 24 | Kirby-Bauer Disc Diffusion Test Results [3]: 26 | Kirby-Bauer Disc Diffusion Test Results [4]: 21 | Kirby-Bauer Disc Diffusion Test Results [5]: 20 | Kirby-Bauer Disc Diffusion Test Results [6]: 22 | Kirby-Bauer Disc Diffusion Test Results [7]: 20 | Kirby-Bauer Disc Diffusion Test Results [8]: 20 | Kirby-Bauer Disc Diffusion Test Results [9]: 17 | Kirby-Bauer Disc Diffusion Test Results [10]: 24

CCC(C)SN1C(=O)C(OC)C1c1ccccc1Cl (mixture of isomers) [sec-Butyl]
Zones of Inhibition [2]: 38 mm | Zones of Inhibition [3]: 34 mm | Zones of Inhibition [4]: 35 mm | Zones of Inhibition [5]: 34 mm | Zones of Inhibition [6]: 36 mm | Zones of Inhibition [7]: 33 mm | Zones of Inhibition [8]: 35 mm | Zones of Inhibition [9]: 33 mm | Zones of Inhibition [10]: 32 mm

CCCCCCCCCCOC(=O)c1ccc(C2C(OC)C(=O)N2SC)cc1 (racemic) [FIG. 8E]
antibacterial activity, in words ([1]; Example 3 SAR): totally devoid of activity

COC1C(=O)N(SC)C1c1cccs1 (racemic) [FIG. 11E]
Kirby-Bauer Disc Diffusion Test Results [2]: 28 | Kirby-Bauer Disc Diffusion Test Results [3]: 28 | Kirby-Bauer Disc Diffusion Test Results [4]: 27 | Kirby-Bauer Disc Diffusion Test Results [5]: 29 | Kirby-Bauer Disc Diffusion Test Results [6]: 28 | Kirby-Bauer Disc Diffusion Test Results [7]: 26 | Kirby-Bauer Disc Diffusion Test Results [8]: 26 | Kirby-Bauer Disc Diffusion Test Results [9]: 24 | Kirby-Bauer Disc Diffusion Test Results [10]: 27

COC1C(=O)N(SC)C1c1ccccc1 (racemic) [FIG. 11B]
Kirby-Bauer Disc Diffusion Test Results [2]: 30 | Kirby-Bauer Disc Diffusion Test Results [3]: 30 | Kirby-Bauer Disc Diffusion Test Results [4]: 26 | Kirby-Bauer Disc Diffusion Test Results [5]: 26 | Kirby-Bauer Disc Diffusion Test Results [6]: 28 | Kirby-Bauer Disc Diffusion Test Results [7]: 28 | Kirby-Bauer Disc Diffusion Test Results [8]: 27 | Kirby-Bauer Disc Diffusion Test Results [9]: 24 | Kirby-Bauer Disc Diffusion Test Results [10]: 25
